In patent US9738653B2, “Fused furans for the treatment of hepatitis C” (BRISTOL-MYERS SQUIBB COMPANY, priority 2013, dated 2017):

Key:
[1] = molecular target: T1, HCV NS5B genotype 1b (Con1) (Hepatitis C virus genotype 1b, UniProt Q9WMX2); test: HCV NS5B RdRp enzyme assay; type: biochemical; details: 1b enzyme, 24 hours at 30° C.
T1 construct: Each untagged protein was expressed with an 18 amino acid C-terminal truncation to enhance the solubility; made in house; host or cells: E. coli BL21(DE3), pET21a
Description: The cDNA encoding NS5B proteins of HCV genotype 1b (Con1), a genotype 1b variant with amino acid 316 mutated from cysteine to asparagine, and genotype 2a (JFH-1), were cloned into the pET21a expression vector. Each untagged protein was expressed with an 18 amino acid C-terminal truncation to enhance the solubility. The E. coli competent cell line BL21(DE3) was used for expression of the protein. Cultures were grown at 37° C. for ˜4 hours until the cultures reached an optical density of 2.0 at 600 nm. The cultures were cooled to 20° C. and induced with 1 mM IPTG. Fresh ampicillin was added to a final concentration of 50 μg/mL and the cells were grown overnight at 20° C.
The lysis buffer consisted of 20 mM Tris-HCl, pH 7.4, 500 mM NaCl, 0.5% triton X-100, 1 mM DTT, 1 mM EDTA, 20% glycerol, 0.5 mg/mL lysozyme, 10 mM MgCl2, 15 ug/mL deoxyribonuclease I, and Complete™ protease inhibitor tablets (Roche). After addition of the lysis buffer, frozen cell pellets were resuspended using a tissue homogenizer. To reduce the viscosity of the sample, aliquots of the lysate were sonicated on ice using a microtip attached to a Branson sonicator. The sonicated lysate was centrifuged at 100,000×g for 30 minutes at 4° C. and filtered through a 0.2 μm filter unit (Corning).
The protein was purified using two sequential chromatography steps: Heparin sepharose CL-6B and polyU sepharose 4B. The chromatography buffers were identical to the lysis buffer but contained no lysozyme, deoxyribonuclease I, MgCl2 or protease inhibitor and the NaCl concentration of the buffer was adjusted according to the requirements for charging the protein onto the column. Each column was eluted with a NaCl gradient which varied in length from 5-50 column volumes depending on the column type. […] The enzyme was aliquoted and stored at −80° C.
An on-bead solid phase homogeneous assay was used in a 384-well format to assess NS5B inhibitors (WangY-K, Rigat K, Roberts S, and Gao M (2006) Anal Biochem, 359: 106-111). The biotinylated oligo dT12 primer was captured on streptavidin-coupled imaging beads (GE, RPNQ0261) by mixing primer and beads in 1× buffer and incubating at room temperature for three hours. Unbound primer was removed after centrifugation. The primer-bound beads were resuspended in 3× reaction mix (20 mM Hepes buffer, pH 7.5, dT primer coupled beads, poly A template, ^3H-UTP, and RNAse inhibitor (Promega N2515)). Compounds were serially diluted 1:3 in DMSO and aliquoted into assay plates. Equal volumes (5 μL) of water, 3× reaction mix, and enzyme in 3× assay buffer (60 mM Hepes buffer, pH 7.5, 7.5 mM MgCl2, 7.5 mM KCl, 3 mM DTT, 0.03 mg/mL BSA, 6% glycerol) were added to the diluted compound on the assay plate. Final concentration of components in 384-well assay: 0.36 nM template, 15 nM primer, 0.29 μM ^3H-UTP (0.3 μCi, 1.6 U/μL RNAse inhibitor, 7 nM NS5B enzyme, 0.01 mg/mL BSA, 1 mM DTT, and 0.33 μg/μL beads, 20 mM Hepes buffer, pH 7.5, 2.5 mM MgCl2, 2.5 mM KCl, and 0.1% DMSO.
Reactions were allowed to proceed for 24 hours at 30° C. and terminated by the addition of 50 mM EDTA (5 μL). After incubating for at least 15 minutes, plates were read on an Amersham LEADseeker multimodality imaging system.
IC50 values for compounds were determined using ten different [I]. IC50 values were calculated from the inhibition using the four-parameter logistic formula y=A+((B−A)/(1+((C/x)^D))), where A and B denote minimal and maximal % inhibition, respectively, C is the IC50, D is hill slope and x represents compound concentration.

[2] = test system: genotype 1b (Con-1) HCV replicon in Huh-7 cells; test: HCV replicon luciferase assay; type: cell-based; details: 1b replicon, Renilla luciferase, 3 days incubation
Description: The cell lines used to evaluate compounds consist of a human hepatocyte derived cell line (Huh-7) that constitutively expresses a genotype 1b (Con-1) HCV replicon or a genotype 1b (Con-1) HCV replicon with an asparagine replacing the cysteine at amino acid 316, or a genotype 2a (JFH-1) replicon, containing a Renilla luciferase reporter gene. These cells were maintained in Dulbecco's modified Eagle medium (DMEM) containing 10% FBS, 100 U/mL penicillin/streptomycin and 1.0 mg/mL G418.
To evaluate compound efficacy, titrated compounds were transferred to sterile 384-well tissue culture treated plates, and the plates were seeded with HCV replicon cells ([…] at a density of 2.4×10^3 cells/well) in DMEM containing 4% FBS (final DMSO concentration at 0.5%). After 3 days incubation at 37° C., cells were analyzed for Renilla Luciferase activity using the EnduRen substrate (Promega cat #E6485) according to the manufacturer's directions. Briefly, the EnduRen substrate was diluted in DMEM and then added to the plates to a final concentration of 7.5 μM. The plates were incubated for at least 1 h at 37° C. then read on a Viewlux Imager (PerkinElmer) using a luminescence program. The 50% effective concentration (EC50) was calculated using the four-parameter logistic formula noted above.

T1 sequence (Q9WMX2 2420-2992): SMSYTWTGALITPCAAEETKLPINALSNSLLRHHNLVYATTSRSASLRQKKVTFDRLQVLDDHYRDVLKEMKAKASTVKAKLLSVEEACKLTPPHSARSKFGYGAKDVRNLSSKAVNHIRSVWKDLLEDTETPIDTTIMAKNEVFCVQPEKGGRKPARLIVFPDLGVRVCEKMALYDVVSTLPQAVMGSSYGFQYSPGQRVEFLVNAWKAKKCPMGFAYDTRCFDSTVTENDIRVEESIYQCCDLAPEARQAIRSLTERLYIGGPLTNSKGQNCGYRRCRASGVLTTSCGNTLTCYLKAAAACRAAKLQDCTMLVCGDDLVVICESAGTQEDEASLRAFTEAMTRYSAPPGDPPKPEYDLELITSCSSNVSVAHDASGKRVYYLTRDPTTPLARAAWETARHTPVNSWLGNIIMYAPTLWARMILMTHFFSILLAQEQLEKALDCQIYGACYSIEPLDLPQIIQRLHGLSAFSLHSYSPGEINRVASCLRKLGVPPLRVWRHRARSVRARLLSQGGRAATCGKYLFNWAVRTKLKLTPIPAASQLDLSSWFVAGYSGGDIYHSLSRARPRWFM

Row | SMILES | IC50 [1] [nM] | EC50 ([2]; Hepatitis C virus, Huh-7, 72 h) [nM] | EC50 [2] [nM]
1 | CNC(=O)c1c(-c2ccc(F)cc2)oc2nc(NCC(F)(F)F)c(-c3ccc(OC)c(C(=O)NC45CC(C4)C5)c3)cc12 | 20 | 3.72 | –
2 | CNC(=O)c1c(-c2ccc(F)cc2)oc2cc(CCCO)c(-c3cccc(C(=O)NC45CC(C4)C5)c3)cc12 | 9.56 | 3.86 | –
3 | CNC(=O)c1c(-c2ccc(F)cc2)oc2nc(NCC(F)F)c(-c3cccc(C(=O)NC45CC(C4)C5)c3)cc12 | 8.63 | 4.3 | –
4 | CNC(=O)c1c(-c2ccc(F)cc2)oc2nc(CCC(F)(F)F)c(-c3cnc(OC)c(C(=O)NC45CC(C4)C5)c3)cc12 | 3.65 | 6.48 | –
5 | CCCc1cc2oc(-c3ccc(F)cc3)c(C(=O)NC)c2cc1-c1cc(C(=O)NC23CC(C2)C3)c(F)cc1C | 20 | 30 | –
6 | CNC(=O)c1c(-c2ccc(F)cc2)oc2nc(CCC(F)(F)F)c(-c3cncc(C(=O)NC45CC(C4)C5)c3)cc12 | 20 | 3.3 | –
7 | CCC(C)c1cc2oc(-c3ccc(F)cc3)c(C(=O)NC)c2cc1-c1cccc(C(=O)NC23CC(C2)C3)c1 (stereo not drawn) [drawing 294] | 10 | – | 10
8 | CCCc1nc2oc(-c3ccc(F)cc3)c(C(=O)NC)c2cc1-c1ccc(F)c(C(=O)NC23CC(C2)C3)c1 | 5.65 | 5.16 | –
9 | CCNc1cc2oc(-c3ccc(F)cc3)c(C(=O)NC)c2cc1-c1cc(C(=O)NC23CC(C2)C3)c(F)cc1F | 20 | 10 | –
10 | CNC(=O)c1c(-c2ccc(F)cc2)oc2cc(COC)c(-c3cccc(C(=O)NC45CC(C4)C5)c3)c(F)c12 | 210 | 7.88 | –
11 | CNC(=O)c1c(-c2ccc(F)cc2)oc2cc(CCCF)c(-c3cccc(C(=O)NC45CC(C4)C5)c3)cc12 | 3.29 | 3.33 | –
12 | CNC(=O)c1c(-c2ccc(F)cc2)oc2nc(NCC(F)F)c(-c3ccc(F)c(C(=O)NC45CC(C4)C5)c3)cc12 | 6.13 | 2.13 | –
13 | CNC(=O)c1c(-c2ccc(F)cc2)oc2cc(COC)c(-c3cc(C(=O)NC45CC(C4)C5)c(OC)cc3C)c(F)c12 | 30 | 30 | –
14 | CNC(=O)c1c(-c2ccc(F)cc2)oc2nc(NCC(F)(F)F)c(-c3cnc(OC)c(C(=O)NC45CC(C4)C5)c3)cc12 | 6.54 | 5.79 | –
15 | CCCc1cc2oc(-c3ccc(F)cc3)c(C(=O)NC)c2cc1-c1ccc(F)c(C(=O)NC23CC(C2)C3)c1 | 10 | 8.79 | –
16 | CNC(=O)c1c(-c2ccc(F)cc2)oc2cc(CCC(F)(F)F)c(-c3cc(C(=O)NC45CC(C4)C5)c(F)cc3C)cc12 | 20 | 20 | –
17 | CNC(=O)c1c(-c2ccc(F)cc2)oc2nc(OC)c(-c3ccc(F)c(C(=O)NC45CC(C4)C5)c3)cc12 | 90 | 20 | –
18 | CNC(=O)c1c(-c2ccc(F)cc2)oc2cc([N+](=O)[O-])c(-c3cccc(C(=O)NC45CC(C4)C5)c3)c(F)c12 | 680 | 170 | –
19 | CNC(=O)c1c(-c2ccc(F)cc2)oc2cc(CCNC(=O)OC)c(-c3cccc(C(=O)NC45CC(C4)C5)c3)cc12 | 20 | 20 | –
20 | CNC(=O)c1c(-c2ccc(F)cc2)oc2cc(OCC(F)(F)F)c(-c3ccc(OC)c(C(=O)NC45CC(C4)C5)c3)cc12 | 4.55 | 10 | –

Row | SMILES | IC50 [1] [nM] | EC50 ([2]; Hepatitis C virus, Huh-7, 72 h) [nM] | EC50 [2] [nM]
21 | CNC(=O)c1c(-c2ccc(F)cc2)oc2cc(CCC(F)F)c(-c3cccc(C(=O)NC45CC(C4)C5)c3)cc12 | 7.19 | 3.89 | –
22 | CNC(=O)c1c(-c2ccc(F)cc2)oc2cc(CCC(F)(F)F)c(-c3cc(C(=O)NC45CC(C4)C5)c(OC)cc3C)cc12 | 50 | 40 | –
23 | CNC(=O)c1c(-c2ccc(F)cc2)oc2cc(CC(=O)OC)c(-c3cccc(C(=O)NC45CC(C4)C5)c3)cc12 | 8.01 | 8.19 | –
24 | CNC(=O)c1c(-c2ccc(F)cc2)oc2nc(NCC(F)(F)F)c(-c3ccc(F)c(C(=O)NC45CC(C4)C5)c3)cc12 | 9.08 | 4.34 | –
25 | CNC(=O)c1c(-c2ccc(F)cc2)oc2cc(NCC(F)(F)F)c(-c3ccc(OC)c(C(=O)NC45CC(C4)C5)c3)cc12 | 7.17 | 5.08 | –
26 | CNC(=O)c1c(-c2ccc(F)cc2)oc2nc(CCC(F)(F)F)c(-c3ccc(OC)c(C(=O)NC45CC(C4)C5)c3)cc12 | 10 | 9.23 | –
27 | CNC(=O)c1c(-c2ccc(F)cc2)oc2nc(CCC(F)(F)F)c(-c3cccc(C(=O)NC45CC(C4)C5)c3)cc12 | 5.85 | 4.07 | –
28 | CCCc1cc2oc(-c3ccc(F)cc3)c(C(=O)NC)c2cc1-c1cccc(C(=O)NC23CC(C2)C3)c1 | 20 | 5.82 | –
29 | CCCc1nc2oc(-c3ccc(F)cc3)c(C(=O)NC)c2cc1-c1cccc(C(=O)NC23CC(C2)C3)c1 | 7.73 | 5.26 | –
30 | CNC(=O)c1c(-c2ccc(F)cc2)oc2cc(CCNS(C)(=O)=O)c(-c3cccc(C(=O)NC45CC(C4)C5)c3)cc12 | 10 | 20 | –
31 | CCCc1cc2oc(-c3ccc(F)cc3)c(C(=O)NC)c2cc1-c1cc(C(=O)NC23CC(C2)C3)c(OC)cc1C | 30 | 30 | –
32 | CCC(C)c1cc2oc(-c3ccc(F)cc3)c(C(=O)NC)c2cc1-c1cccc(C(=O)NC23CC(C2)C3)c1 (stereo not drawn) [drawing 304] | 5.87 | 10 | –
33 | CNC(=O)c1c(-c2ccc(F)cc2)oc2nc(CCC(F)(F)F)c(-c3cc(F)cc(C(=O)NC45CC(C4)C5)c3)cc12 | 30 | 10 | –
34 | CNC(=O)c1c(-c2ccc(F)cc2)oc2cc(CC(N)=O)c(-c3cccc(C(=O)NC45CC(C4)C5)c3)cc12 | 40 | 20 | –
35 | CNC(=O)c1c(-c2ccc(F)cc2)oc2nc(NCC(F)F)c(-c3ccc(OC)c(C(=O)NC45CC(C4)C5)c3)cc12 | 8.87 | 6.23 | –
36 | CNC(=O)c1c(-c2ccc(F)cc2)oc2ncc(-c3ccc(F)c(C(=O)NC45CC(C4)C5)c3)cc12 | 220 | 50 | –
37 | CCN(c1nc2oc(-c3ccc(F)cc3)c(C(=O)NC)c2cc1-c1cccc(C(=O)NC23CC(C2)C3)c1)S(C)(=O)=O | 6.8 | 2.85 | –
38 | CNC(=O)c1c(-c2ccc(F)cc2)oc2nc(CCC(F)(F)F)c(-c3ccc(F)c(C(=O)NC45CC(C4)C5)c3)cc12 | 9.4 | 5.05 | –
39 | CNC(=O)c1c(-c2ccc(F)cc2)oc2cc(CCC(F)(F)F)c(-c3ccc(F)c(C(=O)NC45CC(C4)C5)c3)cc12 | 30 | 10 | –
